Active and inactive are the calls of the source. The rule behind the calls is not given here.
Legend:
BGC-823 [1] = test: Growth inhibition of human BGC823 cells at 5 uM after 72 hrs by MTT assay relative to control; assay type: functional; details: BGC-823, 72 h, read-out: GI
BGC-823 [2] = test: Induction of apoptosis in human BGC823 cells assessed as increase in DNA fragmentation at 50 uM after 48 hrs; assay type: functional, cell-based
BGC-823 [3] = test: Induction of apoptotic bodies in human BGC823 cells at 50 uM after 48 hrs; assay type: functional, cell-based
BGC-823 [4] = test: Growth inhibition of human BGC823 cells at 10 uM after 72 hrs by MTT assay relative to control; assay type: functional; details: BGC-823, 72 h, read-out: GI
BGC-823 [5] = test: Growth inhibition of human BGC823 cells at 100 uM after 72 hrs by MTT assay relative to control; assay type: functional; details: BGC-823, 72 h, read-out: GI
BGC-823 [6] = test: Growth inhibition of human BGC823 cells at 50 uM after 72 hrs by MTT assay relative to control; assay type: functional; details: BGC-823, 72 h, read-out: GI
BGC-823 [7] = test: Effect on cell morphology in human BGC823 cells assessed as chromosomal condensations at 50 uM; assay type: functional, cell-based
BGC-823 [8] = test: Induction of apoptosis in human BGC823 cells at 100 uM after 36 hrs by flow cytometry; assay type: functional
BGC-823 [9] = test: Induction of apoptosis in human BGC823 cells at 100 uM after 12 hrs by flow cytometry; assay type: functional
BGC-823 [10] = test: Induction of apoptosis in human BGC823 cells at 100 uM after 48 hrs by flow cytometry; assay type: functional
BGC-823 [11] = test: Induction of apoptosis in human BGC823 cells at 100 uM after 24 hrs by flow cytometry; assay type: functional
BGC-823 [12] = test: Induction of apoptosis in human BGC823 cells assessed as increase in DNA fragmentation at 100 uM after 48 hrs; assay type: functional, cell-based
BGC-823 [13] = test: Induction of apoptosis in human BGC823 cells at 20 uM after 24 hrs by flow cytometry; assay type: functional
BGC-823 [14] = test: Induction of apoptosis in human BGC823 cells at 20 uM after 48 hrs by flow cytometry; assay type: functional
BGC-823 [15] = test: Induction of apoptosis in human BGC823 cells at 20 uM after 12 hrs by flow cytometry; assay type: functional
BGC-823 [16] = test: Induction of apoptosis in human BGC823 cells at 20 uM after 36 hrs by flow cytometry; assay type: functional

Row | SMILES | inhibition of growth at 5 µM (BGC-823 [1]) [%] | inhibition of growth at 10 µM (BGC-823 [4]) [%] | inhibition of growth at 100 µM (BGC-823 [5]) [%] | inhibition of growth at 50 µM (BGC-823 [6]) [%] | also measured
1 | O=c1c(O)c(-c2ccc(O)c(O)c2)oc2cc(O)cc(O)c12 [QUERCETIN] | 7.5 | 11 | 39.3 | 22.4 | Activity (BGC-823 [2]): Active; Activity (BGC-823 [3]): Active; Activity (BGC-823 [7]): Active; Activity (BGC-823 [8]): 10.19%; Activity (BGC-823 [9]): 5.02%; Activity (BGC-823 [10]): 10.23%; Activity (BGC-823 [11]): 11.82%; Activity (BGC-823 [12]): Active
2 | CC[C@H](CC[C@@H](C)[C@H]1CC[C@H]2[C@@H]3CC=C4C[C@@H](O)CC[C@]4(C)[C@H]3CC[C@]12C)C(C)C [BETA-SITOSTEROL] | 0.4 | 8.8 | 20.4 | 15.6 | –
3 | C[C@@H]1O[C@@H](Oc2c(-c3ccc(O)c(O)c3)oc3cc(O)cc(O)c3c2=O)C(O)[C@H](O)C1O (single isomer, unassigned) [QUERCITRIN] | 0.2 | 3.8 | 10.6 | 5.2 | –
4 | CCCCCCCCCCCCCCCCCCCCCCCCCCCCC [NONACOSANE] | -0.9 | -5.2 | -6.6 | -5.6 | –
5 | O=c1c(O[C@@H]2O[C@H](CO)C(O)[C@H](O)[C@H]2O)c(-c2ccc(O)c(O)c2)oc2cc(O)cc(O)c12 (single isomer, unassigned) [ISOQUERCETIN] | 1.5 | 8.4 | 12.1 | 9.2 | –
6 | COc1c(O)cc2c(c1O)[C@@H]1O[C@H](CO)[C@@H](O)[C@H](O)[C@H]1OC2=O [BERGENIN] | -0.8 | 2.2 | 10.8 | 6.1 | –
7 | CC[C@@]1(O)C(=O)OCc2c1cc1n(c2=O)Cc2cc3cc(O)ccc3nc2-1 [HYDROXYCAMPTOTHECIN] | – | – | – | – | Activity (BGC-823 [13]): 4.78%; Activity (BGC-823 [14]): 6.47%; Activity (BGC-823 [15]): 3.72%; Activity (BGC-823 [16]): 13.2%
8 | CCCCCCCCCCCCCCCCCCCCCCCCCCCCCCC [HENTRIACONTANE] | 4.5 | 3.9 | 10.1 | 7 | –
9 | O=C(O)c1cc(O)c(O)c(O)c1 [GALLIC ACID] | 6.7 | 10.2 | 22.5 | 16.7 | –

From ChEMBL document CHEMBL1141580, “Studies on the chemical constituents and anticancer activity of Saxifraga stolonifera (L) Meeb” (2008)
